Measurements taken from PubChem BioAssay (NCI).
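Results reflect a 48-hour exposure of cells in 96-well plates to compound at five concentrations. The concentration for 50% growth inhibition is given as GI50. The concentration for full growth arrest is given as TGI.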

What was measured:
Assay in all cases: NCI-60 cell line screen, 48 h
NCI-H23 lung = tested on: NCI-H23 lung
SK-OV-3 ovarian = tested on: SK-OV-3 ovarian
DU-145 prostate = tested on: DU-145 prostate
MCF7 breast = tested on: MCF7 breast
TK-10 renal = tested on: TK-10 renal
SN12C renal = tested on: SN12C renal
SW-620 colon = tested on: SW-620 colon
SNB-19 CNS = tested on: SNB-19 CNS
OVCAR-5 ovarian = tested on: OVCAR-5 ovarian
HCC-2998 colon = tested on: HCC-2998 colon
RPMI-8226 leukemia = tested on: RPMI-8226 leukemia
ACHN renal = tested on: ACHN renal
UACC-257 melanoma = tested on: UACC-257 melanoma
UACC-62 melanoma = tested on: UACC-62 melanoma
CAKI-1 renal = tested on: CAKI-1 renal
CCRF-CEM leukemia = tested on: CCRF-CEM leukemia
MDA-MB-435 = tested on: MDA-MB-435
HCT-116 colon = tested on: HCT-116 colon
KM12 colon = tested on: KM12 colon
OVCAR-8 ovarian = tested on: OVCAR-8 ovarian
T-47D breast = tested on: T-47D breast
MOLT-4 leukemia = tested on: MOLT-4 leukemia
NCI-H522 lung = tested on: NCI-H522 lung
UO-31 renal = tested on: UO-31 renal
SF-268 CNS = tested on: SF-268 CNS
HOP-62 NSCLC = tested on: HOP-62 NSCLC
SNB-75 CNS = tested on: SNB-75 CNS
A549 NSCLC = tested on: A549 NSCLC
RXF 393 renal = tested on: RXF 393 renal

CCc1c(C)nc2sc3c(N)ncnc3c2c1C
TGI (NCI-H23 lung): > 25 µM | GI50 (SK-OV-3 ovarian): > 25 µM | TGI (SK-OV-3 ovarian): > 25 µM | GI50 (DU-145 prostate): > 25 µM | TGI (DU-145 prostate): > 25 µM | GI50 (MCF7 breast): > 25 µM | TGI (MCF7 breast): > 25 µM | GI50 (TK-10 renal): > 25 µM | TGI (TK-10 renal): > 25 µM | GI50 (SN12C renal): > 25 µM | TGI (SN12C renal): > 25 µM | GI50 (SW-620 colon): > 25 µM | TGI (SW-620 colon): > 25 µM | GI50 (SNB-19 CNS): > 25 µM | TGI (SNB-19 CNS): > 25 µM | GI50 (OVCAR-5 ovarian): > 25 µM | TGI (OVCAR-5 ovarian): > 25 µM | GI50 (HCC-2998 colon): > 25 µM | TGI (HCC-2998 colon): > 25 µM | GI50 (RPMI-8226 leukemia): > 25 µM | TGI (RPMI-8226 leukemia): > 25 µM | GI50 (ACHN renal): > 25 µM | TGI (ACHN renal): > 25 µM | GI50 (UACC-257 melanoma): > 25 µM | TGI (UACC-257 melanoma): > 25 µM | GI50 (UACC-62 melanoma): > 25 µM | TGI (UACC-62 melanoma): > 25 µM | GI50 (CAKI-1 renal): > 19.6 µM | TGI (CAKI-1 renal): > 25 µM | GI50 (CCRF-CEM leukemia): > 25 µM | TGI (CCRF-CEM leukemia): > 25 µM | GI50 (MDA-MB-435): > 25 µM | TGI (MDA-MB-435): > 25 µM | GI50 (HCT-116 colon): > 25 µM | TGI (HCT-116 colon): > 25 µM | GI50 (KM12 colon): > 25 µM | TGI (KM12 colon): > 25 µM | GI50 (OVCAR-8 ovarian): > 25 µM | TGI (OVCAR-8 ovarian): > 25 µM | GI50 (T-47D breast): > 25 µM | TGI (T-47D breast): > 25 µM | GI50 (MOLT-4 leukemia): > 25 µM | TGI (MOLT-4 leukemia): > 25 µM | GI50 (NCI-H522 lung): > 25 µM | TGI (NCI-H522 lung): > 25 µM | GI50 (UO-31 renal): > 25 µM | TGI (UO-31 renal): > 25 µM | GI50 (SF-268 CNS): > 25 µM | TGI (SF-268 CNS): > 25 µM | GI50 (HOP-62 NSCLC): > 25 µM | TGI (HOP-62 NSCLC): > 25 µM | GI50 (SNB-75 CNS): > 25 µM | TGI (SNB-75 CNS): > 25 µM | GI50 (A549 NSCLC): > 25 µM | TGI (A549 NSCLC): > 25 µM | GI50 (RXF 393 renal): > 25 µM | TGI (RXF 393 renal): > 25 µM
